Results on nine compounds are retold here after patent publication US8492159B2, “Methods and compositions for treating conditions” (priority 2004, dated 2013).

The subject of test [1] is Pseudomonas syringae pv tomato, DC3000. Put plainly: Systemic resistance of plants to a virulent bacterial pathogen. It counts as in vivo, Arabidopsis ecotype Columbia (Col-0). Particulars: 20 μl salicylic acid at 1 mM and 20 μl SEQ ID NO: 15 applied together to the leaves. Here is the method: Seeds of Arabidopsis ecotype Columbia (Col-0) were planted in potting soil. Plants were cultivated in a growth chamber with 10-h d (200 μmol m^−2 s^−1 at 22° C.) and 14-h night (18° C.) cycles and 80% RH. Once a week plants were supplied with water and modified one-half strength Hoagland nutrient solution: 2 mM KNO 5 mM Ca(NO3)2 and trace elements, pH 7.
A virulent plant pathogen, Pst Pseudomonas syringae pv tomato, DC3000 was grown at 28° C. on King's medium B containing 40 mg/L tetracycline. Plants were inoculated with 1×10^7 cfu/ml of the pathogen in 0.01% Silwet L77 (v/v) (a surfactant) and distilled water 5 weeks after sowing. The bacterial suspension or a control solution (0.01% Silwet L77 in water) was then sprayed on the plant once.
Disease symptoms in Arabidopsis are water-soaked, spreading lesions, sometimes surrounded by chlorotic margin that eventually lead to yield loss and plant death.
To test the efficacy of SEQ ID NO: 15, some healthy and some disease plants were sprayed with salicylic acid in 0.01%. Silwet L77; some healthy and some disease plants were sprayed with SEQ ID NO: 15 in 0.01%. Silwet L77, and some healthy and some disease plants were sprayed with salicylic acid in combination with SEQ ID NO: 15 in 0.01%. Silwet L77. A control group of some healthy and some disease plants were sprayed with water in 0.01%. Silwet L77. […]

Test [2] concerns Sauromatum guttatum appendix. Briefly: Modulation of heat generated by salicylic acid (SA) in appendix sections. Particulars: appendix sections in aqueous SA with or without peptide. Here is the method:
(§1) In one example, using Sauromatum guttatum as the experimental module, on the day of inflorescence-opening, the Sauromatum appendix (a 20-40 cm-long, slender organ) becomes warm, reaching a 32° C. temperature (Skubatz et al., 1991, Plant Physiol. 95:1084-1088). The heat generated by the appendix is generated by the mitochondria. This mitochondrial activity can be triggered by the addition of phenolic compounds, including but not limited to, salicylic acid, aspirin, and 2,6-dihydroxybenzoic acid. Test agents can be applied to the plant and the plant's temperature may be monitored in vivo.
FIG. 5 illustrates modulation of heat generated by salicylic acid (SA) in the presence of human opioid peptides (β-Endorphin, SEQ ID NO: 19 and Nueuropeptide AF, SEQ ID NO: 44) and, the Alzheimer's peptide, Aβ 1-42, SEQ ID NO: 49, and, a plant virulent bacterial pathogen (Pst DC3000). One day before heat-production, sections of the appendix were placed in different aqueous solutions containing salicylic acid (SA) with or without a peptide or with the bacterial plant pathogen, Pseudomonas syringae pv. Tomato, DC3000. Sections from the appendix were placed in distilled water that was not generated any heat is the control (water). Temperature was recorded with thermocouples attached to the sections every 5 min.

For test [3], the system named is Sauromatum guttatum appendix. Put plainly: Modulation of heat generated by aspirin (ASA) in appendix sections. Particulars: appendix sections in aqueous ASA with or without peptide. Here is the method: as §1
One day before heat-production, sections of the appendix were placed in different aqueous solutions containing ASA with or without an opioid peptide. [Leu]-Enkephalin, SEQ ID NO: 15; Human β-Endorphin; SEQ ID NO: 19; Dynorphin A, SEQ ID NO: 21; Endomorphin 2, SEQ ID NO: 24; Neuropeptide AF, SEQ ID NO: 44; β-human-Casomorphin, SEQ ID NO: 47; Alzheimer's peptide, SEQ ID NO: 48. […] Temperature was recorded with thermocouples attached to the section every 5 min.

The subject of another test is chronic pain. Briefly: Topical administration to an adult subject with chronic pain, scaled score 1 to 10. The class given is in vivo, human. Here is the method: An adult subject suffering from chronic pain as a result from of multiple fractures to both tibia and fibula in both legs and severe traumatic soft tissue damage was topically administered a composition containing a polypeptide of SEQ ID NO: 1 at regions experiencing pain (mostly knees and ankles). The pharmaceutical formulation administered comprised of 5 μM of SEQ ID NO: 1 in 0.01% Silwet L-77. Relief was noticed within 15 min. after administration of a single dose of about 5 μg/10 cm2 of SEQ ID NO: 1. […] A scaled score of 1 to 10 was used to evaluate treatment efficacy where a score of 10 represented a patient with sever pain discomfort and complete inability to walk. A scaled score of 1 represented a patient experiencing no pain and able to freely walk or move the legs. Prior to treatment, the patient scored an 8-9 representing chronic pain and difficulties in walking long distance. After the treatment, the patient scored a 2-3 representing a significant decrease in pain. Treatment efficacy lasted for about 10 days.

The subject of test [4] is Arabidopsis thaliana plants. Briefly: Flowering of treated plants. The class given is in vivo. Particulars: 10 μm in 0.01% Silwet L-77.
Test [5] relates to post-operative pain in rats. Put plainly: Hind paw withdrawal threshold (von Frey filaments) after surgery, second study. The class given is in vivo, rat. Here is the method:
In a second independent study the rat hind paw withdrawal sensitivity was again evaluated after 3 h and 3 day post-surgery when the rats had received SEQ ID NO: 1 at three different concentrations: 1, 15 and 50 mg/kg. The dosing route was subdermal injection adjacent to the wound site. The rats received one dose 3 hours after the surgery and on Day 3 post-surgery, group 3 was dosed again as described in the Table IV. Pain measurements were taken 15-20 min after application of the drug. Baseline pain behavior was measured as follows: Withdrawal responses to mechanical stimulation were determined using von Frey filaments applied from underneath the cage through openings (12×12 mm in the plastic mesh floor to an area adjacent to the intended incision. Each von Frey filament (Target force of 0.008 g to 300 g) was applied once starting with 0.008 g filament and continuing until a withdrawal response occurred or 300 g force was reached. The median force producing a response, determined from three tests given over a 10-min period was considered the withdrawal threshold.
In the saline treated animals, the control, 3-hour post-surgery were 25.1, 4.4 and 12.7 g, indicating significant hyperalgesic response immediately after surgery which subsided by Day-3. […] The withdrawal response in the 50 mg/kg SEQ ID NO: 1 administered on Day-1 was 9.9 g compared to the 4.4 g for the saline group at the same time-point, indicating a 125% effect. The data expressed as mean±SE, were analyzed using ANOVA followed by Tukey-HSD Multiple Comparison Test. Statistical significance was p<0.05.
On Day-3, when these animals were administered with […] of SEQ ID NO: 1 subdermally, the withdrawal response was at 21.3 g, compared to the withdrawal response of saline group at 12.7 g, constituting an increase of 68%. The data expressed as mean±SE, were analyzed using ANOVA followed by Tukey-HSD Multiple Comparison Test. Statistical significance was p<0.05.

Test [6] relates to post-operative pain in rats. Put plainly: Von Frey testing for mechanical allodynia, post-operative pain (Brennan model), first study. The class given is in vivo, rat. An excerpt: A total of forty (40) male Sprague Dawley rats (Harlan Sprague Dawley Inc., Indianapolis, Ind., USA) were used in the study. The rats are specific pathogen free and approximately 250 grams upon arrival. The rats were housed in the vivarium in clear polycarbonate plastic cages (48×27×20 cm); 2 rats per cage until a few days prior to surgery at which point they were singularly housed for the remainder of the study procedures. The bedding material is irradiated corn-cob bedding (Bed-O-Cob, The Andersons, Maumee, Ohio, USA) that was changed weekly. The rats were acclimated for two weeks prior to the commencement of the experimental procedures. The room in which the rats were housed throughout the study was supplied with HEPA filtered air at the rate of 10-15 air changes per hour. The temperature was maintained at 18-26° C. with a relative humidity of 30-70%. Illumination is approximately 300 lumens/m^2 at 1 m above floor level on a 12-hour light/dark cycle. […]
On days 1 and 3 post-surgery, the rats underwent Von Frey testing for mechanical allodynia. Tactile sensitivity (i.e. mechanical allodynia) was measured using calibrated filaments touched to the plantar surface of the affected limb. […]
FIG. 1. Data were analyzed using a one-way ANOVA followed by Newman-Keuls' Multiple Comparison. […]

In test [7] the test system is Sauromatum guttatum appendix. Briefly: Modulation of heat generated by 2,6-dihydroxybenzoic acid (2,6-DHBA) in appendix sections; peptide alone in a second experiment. Here is the method:
as §1
FIG. 6 illustrates modulation of heat generated by 2,6-dihydroxybenzoic acid in the presence of the Alzheimer's peptide, A.β.1-42, SEQ ID NO: 49 and a plant gene derived sequence in the Sauromatum guttatum appendix. One day before heat-production, sections of the appendix were placed in different solutions containing 2,6-dihydroxybenzoic acid (2,6-DHBA) with or without SEQ ID NO: 2 (FLPSEFGVDVDR) and SEQ ID NO: 49. Heat-production was monitored with thermocouples attached to the sections. A section placed in distilled water that was not generated any heat is the control (water). […] The temperature was recorded every 5 min.

Consider `O=C(O)c1ccccc1O` [salicylic acid], for which the “systemic resistance to the virulent bacteria” value in test [1] is “enough to trigger systemic resistance”.

With AGEGLNSQFWSLAAPQRF [SEQ ID NO: 44], the “modulation of heat generated by salicylic acid (SA) (FIG. 5)” value in test [2] is given as “modulate thermogenicity in plants”. For the same compound, in test [3], the “modulation of heat generated by aspirin (ASA) (FIG. 4)” value (“modulation … (FIG. 4)” for short) is “can modulate thermogenicity in plants”.

Regarding “FLPS (Description of Unknown: Arabidopsis thaliana or Homo sapiens) [SEQ ID NO: 1]”, in the test on chronic pain (scale 1 (no pain) to 10 (severe pain), prior to treatment 8-9), the “scaled pain score after the treatment” value was 2-3. In addition, in the test with chronic pain (topical, single dose), the “duration of treatment efficacy” value is “about 10 days”. In the test with chronic pain (topical, single dose of about 5 μg/10 cm2), the duration of relief entry is reported as “more than a week”. The “time until relief was noticed” value with chronic pain (topical, single dose of about 5 μg/10 cm2, 5 μM in 0.01% Silwet L-77) is listed as at most 15 min. In addition, the flowering entry in test [4] is “induces early flowering and abundance of flowers and pods”. Moreover, the “increase in the pain threshold” value in test [5] (1 mg/kg on day 1, 3-hour post surgery measurements) amounted to 39%. Also, in test [5] (50 mg/kg subdermal, Day-1, 3 h after surgery), the “effect compared to the saline group at the same time-point” value is 125%. In addition, the withdrawal response in test [5] (50 mg/kg subdermal, Day-1, 3 h after surgery, saline group 4.4 g) is 9.9 g; in test [5] (Day-3, 15.25 mg/kg subdermally (animals given 1 mg/kg on day 1), saline group 12.7 g) it was 21.3 g. For the same compound, the “increase in response time compared to the saline group” value in test [5] (Day 3, group which did not receive any further dosing) was 31%. The “increase of withdrawal response compared to saline group” value in test [5] (Day-3, 15.25 mg/kg subdermally) is given as 68%. In test [6] (rats 3 days after surgery, 150 μg topical or subdermal, p<0.05), the “pain (mechanical allodynia, paw withdrawal threshold, FIG. 1)” value is “significantly reduce pain”. Also, the “appearance of the rats” value in test [6] (rats after surgery, treated) was “relaxed and with less anxiety”.

As for FLPSEFGVDVDR [SEQ ID NO: 2], the “modulation of heat generated by 2,6-dihydroxybenzoic acid (FIG. 6)” value in test [7] (appendix sections in 2,6-DHBA with or without peptide) is “modulate thermogenicity in plants”. In addition, the “heat generation by the peptide” value in test [7] (second experiment, up to 50 μM, data not shown) is “did not generate heat”.

For the compound YGGFL [SEQ ID NO: 15], in test [3], the “modulation … (FIG. 4)” value is “can modulate thermogenicity in plants”. Moreover, in test [1], the “systemic resistance to the virulent bacteria” value is reported as “enough to trigger systemic resistance”.

Turning to YGGFLRRIRPKLKWDNQ [SEQ ID NO: 21], the “modulation … (FIG. 4)” value in test [3] is “can modulate thermogenicity in plants”.

Turning to “YGGFMTSEKSQTPLVTLFKNAIIKNAYKKGE [SEQ ID NO: 19]”, the “modulation of heat generated by salicylic acid (SA) (FIG. 5)” value in test [2] was “modulate thermogenicity in plants”. Besides, in test [3], the “modulation … (FIG. 4)” value was “can modulate thermogenicity in plants”.

Turning to YPFF [SEQ ID NO: 24], the “modulation … (FIG. 4)” value in test [3] is on record as “can modulate thermogenicity in plants”.

Regarding YPFVEPIP [SEQ ID NO: 47], the “modulation … (FIG. 4)” value in test [3] is given as “can modulate thermogenicity in plants”.
